# Patent publication US20240415828A1, “TLR7 AGONIST AND COMBINATIONS FOR CANCER TREATMENT” (BIONTECH SE, priority 2021, published 2024)
# Assays:
# [1] = tested on: CT26 colon carcinoma cells; assay: CT26 tumor model, BNT411 alone and with oxaliplatin (Example 4); assay type: in vivo, mouse; conditions: BNT411 3 mg/kg i.v. eight times; oxaliplatin 5 mg/kg i.p. four times; group mean tumor volumes test vs control
# Method: FIG. 5. Anti-tumoral efficacy of BNT411 alone and in combination with oxaliplatin in a tumor mouse model. Mice (n=12 or 13 per group) subcutaneously inoculated with 2.5×10^5 CT26 colon carcinoma cells were used as tumor mouse model. Oxaliplatin was administered intraperitoneally (i.p.) (5 mg/kg, four times with 4 to 5 days between injections). BNT411 was administered i.v. at a dose level of 3 mg/kg eight times with 2 to 5 days interval between injections and at least 2 days after oxaliplatin therapy. Anti-tumor efficacy was evaluated by group mean tumor volumes in test versus control groups (vehicle only) on days 33 and 42 (at least 50% of test and control animals alive). IFNα levels in plasma were analyzed 1 h after first BNT411 administration and gp70+ T-cell populations in blood were analyzed on days 34 and 41. (A) Dosing schedule. (B) Graph showing the tumor volumes vs. days after inoculation. Group mean tumor volumes (±SEM (standard error of the mean)) for all live animals are shown. Treatment groups included nine to ten mice. Additionally, tumor volumes of animals that were euthanized due to tumor load were carried forward for as long as they were larger than the group median tumor volume (last observation carried forward (LOCF) values). Curves were discontinued for groups with less than 50% animals alive. (C) Graph showing IFNα serum level 60 min after first injection for the 4 groups (control (vehicle); BNT411 alone; oxaliplatin alone; BNT411 and oxaliplatin). IFNα levels in control and test groups are shown by vertical bars (±SEM), Statistical significance between groups is indicated by horizontal lines. P-value summary: ****=p≤0.0001; ***=p≤0.001; **=p≤0.01, […].
# Serum levels of IFNα were measured by sandwich ELISA (Pbl Assay Systems) according to manufacturer's instructions.
# BALB/c mice were inoculated s.c. with 2.5×10^5−5×10^5 CT26-WT into the flank, respectively. Once tumors reached palpable sizes, mice were randomly divided into treatment and control groups. Tumor volume was measured unblinded with a caliper and calculated using the formula (a×b^2)/2 (a being the largest and b being the smallest diameter of the tumor). Tumor growth was documented as mean tumor size with standard error disregarding single distant outliers. Treatment was initiated after 7-10 d with tumors having reached an average volume of about 10 mm^3. […]
# Oxaliplatin was administered intraperitoneally (i.p.) (5 mg/kg, four times with 4 to 5 days between injections). […] Anti-tumor efficacy was evaluated by group mean tumor volumes in test versus control groups (vehicle only) on study days 33 and 42, (at least 50% of test and control animals alive). IFNα levels in plasma were analyzed 1 h after first BNT411 administration and gp70+ T-cell populations in blood on study days 34 and 41.
# [2] = in vivo, cited from earlier work
compound,measurement,setting,value
"O=C1[O][Pt]2([NH][C@@H]3CCCC[C@H]3[NH]2)[O]C1=O [oxaliplatin, reference compound]","anti-tumor efficacy, T/C value",[1],50.7%
CCc1nc2c(N)nc3ccccc3c2n1CCCCNS(C)(=O)=O [852A],tolerability of repeat-dose regimens,[2],not well tolerated
CC(C)Cn1cnc2c(N)nc3ccccc3c21 [imiquimod],tolerability of repeated i.v. administrations at a systemically effective IFNa-inducing dose level,[2]; iv,dose limiting adverse reactions
